Laboratory results: article PMC8787749, “4-Deoxy-4-fluoro-GalNAz (4FGalNAz) Is a Metabolic Chemical Reporter of O-GlcNAc Modifications, Highlighting the Notable Substrate Flexibility of O-GlcNAc Transferase” (ACS Chemical Biology, 2021)

How the values were obtained:
Assay in all cases: UDP-Glo UDP release assay
Type in all cases: biochemical
ncOGT (OGT) = target: T1, ncOGT (OGT) (Homo sapiens, UniProt O15294); conditions: 40 μM UDP sugar, 125 μM CKII3K peptide, 300 nM enzyme, 25 mM Tris-HCl pH 7.4, 150 mM NaCl, room temperature
T1 sequence (O15294 2-1046): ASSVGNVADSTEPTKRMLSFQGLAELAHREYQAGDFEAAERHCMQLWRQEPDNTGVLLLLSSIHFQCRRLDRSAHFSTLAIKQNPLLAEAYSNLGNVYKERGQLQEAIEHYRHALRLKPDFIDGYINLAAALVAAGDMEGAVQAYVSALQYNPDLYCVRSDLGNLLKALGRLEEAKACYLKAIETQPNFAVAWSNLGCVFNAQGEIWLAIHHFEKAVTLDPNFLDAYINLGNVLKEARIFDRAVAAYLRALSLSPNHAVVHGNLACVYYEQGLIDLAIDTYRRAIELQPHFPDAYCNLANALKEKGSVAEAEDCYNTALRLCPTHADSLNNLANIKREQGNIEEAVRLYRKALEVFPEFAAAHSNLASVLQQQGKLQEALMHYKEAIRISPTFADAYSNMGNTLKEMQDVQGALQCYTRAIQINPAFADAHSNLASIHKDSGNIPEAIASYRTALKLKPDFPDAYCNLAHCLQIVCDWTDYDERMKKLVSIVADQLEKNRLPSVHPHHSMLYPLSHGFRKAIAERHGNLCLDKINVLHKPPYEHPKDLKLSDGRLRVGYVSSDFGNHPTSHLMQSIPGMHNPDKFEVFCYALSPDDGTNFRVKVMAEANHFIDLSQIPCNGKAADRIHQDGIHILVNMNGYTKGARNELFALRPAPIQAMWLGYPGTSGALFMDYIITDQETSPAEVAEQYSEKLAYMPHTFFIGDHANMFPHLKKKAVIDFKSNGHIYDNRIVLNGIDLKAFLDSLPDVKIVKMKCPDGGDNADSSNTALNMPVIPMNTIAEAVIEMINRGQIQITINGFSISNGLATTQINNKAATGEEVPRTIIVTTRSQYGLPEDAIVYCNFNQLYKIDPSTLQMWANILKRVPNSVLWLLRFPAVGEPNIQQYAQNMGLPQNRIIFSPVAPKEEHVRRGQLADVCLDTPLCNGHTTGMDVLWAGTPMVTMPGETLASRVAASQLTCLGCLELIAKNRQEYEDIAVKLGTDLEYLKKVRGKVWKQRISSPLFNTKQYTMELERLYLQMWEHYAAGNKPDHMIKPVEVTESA

GALNT1 = target: T2, GALNT1 (Homo sapiens, UniProt Q10472); conditions: 50 μM UDP sugar, 50 μM MUC5AC peptide, 10 nM enzyme, 25 mM Tris-HCl pH 7.4, 10 mM MnCl2, room temperature
T2 construct: truncated, residues 41-559, plasmid hT1-pKN55, secreted from Pichia pastoris SMD1163, Ni-NTA purified
T2 sequence (Q10472 41-559): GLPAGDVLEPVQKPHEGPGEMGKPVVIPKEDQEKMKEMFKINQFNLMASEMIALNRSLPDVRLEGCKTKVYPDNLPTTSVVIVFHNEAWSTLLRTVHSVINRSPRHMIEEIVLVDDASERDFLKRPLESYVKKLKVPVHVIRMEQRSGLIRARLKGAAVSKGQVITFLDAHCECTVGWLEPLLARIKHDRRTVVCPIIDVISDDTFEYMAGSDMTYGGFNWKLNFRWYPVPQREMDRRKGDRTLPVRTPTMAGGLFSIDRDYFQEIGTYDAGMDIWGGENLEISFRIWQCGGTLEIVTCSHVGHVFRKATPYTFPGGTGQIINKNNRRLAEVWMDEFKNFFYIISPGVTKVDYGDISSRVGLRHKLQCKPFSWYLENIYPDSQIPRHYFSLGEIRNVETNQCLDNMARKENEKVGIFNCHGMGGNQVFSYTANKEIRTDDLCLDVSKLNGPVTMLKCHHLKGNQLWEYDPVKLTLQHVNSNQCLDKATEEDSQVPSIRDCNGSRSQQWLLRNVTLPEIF

GALNT2 = target: T3, GALNT2 (Homo sapiens, UniProt Q10471); conditions: 50 μM UDP sugar, 50 μM MUC5AC peptide, 150 nM enzyme, 25 mM Tris-HCl pH 7.4, 10 mM MnCl2, room temperature
T3 construct: truncated, residues 75-572 as printed, hT2-pKN55 vector, secreted from Pichia pastoris SMD1163, Ni-NTA purified
T3 sequence (Q10471 75-571): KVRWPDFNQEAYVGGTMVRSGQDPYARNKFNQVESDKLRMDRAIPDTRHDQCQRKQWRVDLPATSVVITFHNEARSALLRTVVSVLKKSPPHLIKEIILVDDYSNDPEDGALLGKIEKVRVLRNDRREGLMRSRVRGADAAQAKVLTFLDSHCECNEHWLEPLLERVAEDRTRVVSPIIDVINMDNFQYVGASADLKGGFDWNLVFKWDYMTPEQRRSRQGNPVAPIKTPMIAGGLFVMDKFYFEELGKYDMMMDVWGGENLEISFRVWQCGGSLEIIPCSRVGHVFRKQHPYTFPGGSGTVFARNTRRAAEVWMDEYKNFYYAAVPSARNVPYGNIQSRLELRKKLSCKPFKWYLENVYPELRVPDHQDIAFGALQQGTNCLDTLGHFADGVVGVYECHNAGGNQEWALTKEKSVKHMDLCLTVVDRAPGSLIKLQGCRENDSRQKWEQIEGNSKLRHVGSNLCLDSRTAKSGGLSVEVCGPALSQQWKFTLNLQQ

| Structure (SMILES) | UDP-Glo UDP release assay (ncOGT (OGT)) | UDP-Glo UDP release assay (GALNT1) | UDP-Glo UDP release assay (GALNT2) |
| --- | --- | --- | --- |
| CC(=O)N[C@H]1[C@@H](OP(=O)(O)OP(=O)(O)OC[C@H]2O[C@@H](n3ccc(=O)[nH]c3=O)[C@H](O)[C@@H]2O)O[C@H](CO)[C@@H](O)[C@@H]1O [UDP-GlcNAc] | OGT accepted UDP-GalNAc but less efficiently than UDP-GlcNAc |  |  |
| CC(=O)N[C@H]1[C@@H](OP(=O)(O)OP(=O)(O)OC[C@H]2O[C@@H](n3ccc(=O)[nH]c3=O)[C@H](O)[C@@H]2O)O[C@H](CO)[C@H](O)[C@@H]1O [UDP-GalNAc] |  | despite clear turnover of the native UDP-GalNAc substrate | despite clear turnover of the native UDP-GalNAc substrate |
